The text below walks through data of patent publication US8987314B2, “Amide, urea or sulfone amide linked benzothiazole inhibitors of endothelial lipase” (Bristol-Myers Squibb Company, priority 2012, dated 2015).

The target in one assay is Endothelial lipase (EL) (Homo sapiens (Human), UniProt Q9Y5X9). Description: EL assay: endothelial lipase activity with fluorescent substrate A10070 in DMPG vesicles. Type of assay: biochemical. As to the method:
(§1) Endothelial lipase (EL) and hepatic lipase (HL) activities were measured using a fluorescent substrate, A10070, (Invitrogen, CA) doped into an artificial vesicle containing DMPG (Avanti Polar Lipids) as the excipient. Vesicles were prepared by combining 571 μL of 29 mM DMPG in a 1:1 mixture of MeOH and CHCl3 with 2000 μL of 1 mM A10070 in a 1:1 mixture of MeOH and CHCl3. The mixture was dried under nitrogen in multiple vials then resuspended in 20 mL total volume of 50 mM HEPES pH 8.0 buffer containing 50 mM NaCl and 0.2 mM EDTA. The sample was allowed to sit at room temperature for 15 min and then was sonicated 3×4 mins on ice with a Branson Sonicator using duty cycle 1. This preparation provides vesicles with a mole fraction of 0.11 for the FRET substrate.
(§2) The enzymatic assay was measured using 384-well white Optiplates. Each well contained 20 μL of assay buffer (50 mM HEPES pH 8.0, 50 mM NaCl and 1 mM CaCl2) and 0.25 μL of a DMSO solution containing a compound of interest. EL or HL (10 μL) was added and allowed to incubate with the compound for 30 min at 37° C. The source of EL was conditioned media obtained from HT-1080 cells that were transformed using RAGE technology (Athersys) to overexpress endogenous EL, and HL was partially purified from conditioned media obtained from COS cells overexpressing HL. The reaction was started by the addition of 10 μL of a 1:10 dilution of vesicles. The final total reaction volume was […]. The reaction rates were measured on a Gemini plate reader with an excitation wavelength of 490 nm and an emission wavelength of 530 nm. Readings were taken over a period of 60 minutes, and the slope between 300 and 900 secs of the readout was used to calculate the rate of the reaction.

In another assay the target is hepatic lipase (HL) (Homo sapiens (Human), UniProt P11150). Description: HL assay: hepatic lipase activity with fluorescent substrate A10070 in DMPG vesicles. Type of assay: biochemical. As to the method: as §1, §2
The mark [1] stands for this setting: EL from conditioned media of HT-1080 cells, 30 min incubation with compound at 37° C., A10070/DMPG vesicles.
Setting [2] is: HL partially purified from conditioned media of COS cells, 30 min incubation with compound at 37° C., A10070/DMPG vesicles.

Where two headings read alike, the source gives them in different places.

hepatic lipase (HL), sequence (P11150 23-499, species assumed): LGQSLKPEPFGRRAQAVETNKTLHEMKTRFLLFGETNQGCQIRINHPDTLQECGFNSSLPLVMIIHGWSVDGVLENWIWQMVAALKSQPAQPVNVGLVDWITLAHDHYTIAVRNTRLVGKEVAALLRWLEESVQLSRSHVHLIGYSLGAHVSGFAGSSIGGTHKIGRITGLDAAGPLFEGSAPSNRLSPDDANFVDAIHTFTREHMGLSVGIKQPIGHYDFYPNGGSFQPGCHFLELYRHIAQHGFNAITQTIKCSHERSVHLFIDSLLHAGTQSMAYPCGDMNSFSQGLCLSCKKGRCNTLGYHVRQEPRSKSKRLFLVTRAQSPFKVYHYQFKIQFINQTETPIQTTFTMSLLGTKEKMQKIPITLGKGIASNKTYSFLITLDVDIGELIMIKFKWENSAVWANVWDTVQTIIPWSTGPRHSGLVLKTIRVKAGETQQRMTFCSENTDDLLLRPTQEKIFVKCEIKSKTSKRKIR
Endothelial lipase (EL), sequence (Q9Y5X9 21-500): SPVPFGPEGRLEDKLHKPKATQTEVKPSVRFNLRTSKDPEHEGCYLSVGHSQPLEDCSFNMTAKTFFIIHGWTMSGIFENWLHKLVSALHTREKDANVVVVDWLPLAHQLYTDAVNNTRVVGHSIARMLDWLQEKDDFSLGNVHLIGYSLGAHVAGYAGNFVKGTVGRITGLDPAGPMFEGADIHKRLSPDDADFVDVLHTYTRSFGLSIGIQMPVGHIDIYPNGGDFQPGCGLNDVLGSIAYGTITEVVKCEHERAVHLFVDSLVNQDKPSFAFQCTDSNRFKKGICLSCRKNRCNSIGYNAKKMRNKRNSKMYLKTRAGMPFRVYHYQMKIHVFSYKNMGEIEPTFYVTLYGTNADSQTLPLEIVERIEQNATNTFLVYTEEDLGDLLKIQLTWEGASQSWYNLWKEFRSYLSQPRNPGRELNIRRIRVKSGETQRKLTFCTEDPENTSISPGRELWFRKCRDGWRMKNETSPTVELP

For orientation: IC50 means the concentration that inhibits the measured activity by half. Take `CC(C)S(=O)(=O)C(C(=O)NCCS(N)(=O)=O)c1nc2c(F)cc(-c3cccc(C(=O)OC(C)(C)C)c3)cc2s1` (stereo not drawn) [Example B280, tert-butyl 3-{4-fluoro-2-[(propane-2-sulfonyl)[(2-sul-famoylethyl)carbamoyl]meth-yl]-1,3-benzothiazol-6-yl}benzoate]: the IC50 worked out at 4.8 nM against Endothelial lipase (EL) and 2.9 nM at hepatic lipase (HL).
For `CS(=O)(=O)C(C(=O)NCCS(N)(=O)=O)c1nc2ccc(-c3ccc(C(=O)N4CC[C@H](O)C4)cc3)cc2s1` (stereo partly drawn) [Example B328, 2-(6-{4-[(3S)-3-hydroxypyrrolidine-1-carbonyl]phen-yl}-1,3-benzothiazol-2-yl)-2-methanesulfonyl-N-(2-sulfamoylethyl)a-cetamide], in that order: 4 nM and 2620 nM.
For `CS(=O)(=O)C(C(=O)NCCS(N)(=O)=O)c1nc2cc(-c3ccc(C(=O)NCCO)cc3)ccc2s1` (stereo not drawn) [Example B94, N-(2-hydroxyethyl)-4-(2-(1-(methylsulfonyl)-2-oxo-2-((2-sulfamoylethyl)a-mino)ethyl)-1,3-benzothiazol-5-yl)ben-zamide] the same measures were < 10 nM and 123 nM.
For `Cn1nccc1-c1ccc2nc(C(C(=O)NCCS(N)(=O)=O)S(C)(=O)=O)sc2c1` (stereo not drawn) [Example B235, 2-methanesulfonyl-2-[6-(1-methyl-1H-pyrazol-5-yl)-1,3-benzothiazol-2-yl]-N-(2-sulfamoylethyl)a-cetamide] the same measures were 5.1 nM and 3050 nM.
Turning to `NS(=O)(=O)CCNC(=O)C(c1nc2ccc(-c3ccc(C(F)(F)F)nc3)cc2s1)S(=O)(=O)CCN1CCOCC1` (stereo not drawn) [Example B316, 2-[2-(morpholin-4-yl)ethanesulfonyl]-N-(2-sulfamoylethyl)-2-{6-[6-(trifluoromethyl)pyridin-3-yl]-1,3-benzothiazol-2-yl}acetamide], the IC50 against Endothelial lipase (EL) was 145 nM; against hepatic lipase (HL), 399 nM.
For `COCCNC(=O)c1ccc(-c2ccc3nc(C(C(=O)NCCS(N)(=O)=O)S(=O)(=O)Cc4cccc(F)c4)sc3c2)cc1` (stereo not drawn) [Example B117, 4-(2-(1-((3-fluorobenzyl)sulfonyl)-2-oxo-2-((2-sulfamoylethyl)a-mino)ethyl)-1,3-benzothiazol-6-yl)-N-(2-methoxyethyl)benzamide] the same measures were < 10 nM and 176 nM.
As to `NS(=O)(=O)CCNC(=O)C(c1nc2ccc(-c3ccc(C(=O)N4CCOCC4)cc3)cc2s1)S(=O)(=O)Cc1ccc(C(F)(F)F)cc1` (stereo not drawn) [Example B293, 2-{6-[4-(morpholine-4-carbonyl)phenyl]-1,3-benzothiazol-2-yl}-N-(2-sulfamoylethyl)-2-{[4-(trifluoromethyl)phen-yl]methanesulfonyl}a-cetamide], the values for the IC50 at Endothelial lipase (EL) and against hepatic lipase (HL) were 146 nM and 328 nM, respectively.
For `Cc1nnc(CNC(=O)C(c2nc3cc(C)c(-c4ccccc4)cc3s2)S(C)(=O)=O)o1` (stereo not drawn) [Example B82, N-((5-methyl-1,3,4-oxadiazol-2-yl)methyl)-2-(5-methyl-6-phenyl-1,3-benzothiazol-2-yl)-2-(methylsulfonyl)acetamide] the same measures were 85 nM and 177 nM.
In the case of `CC1CCN(C(=O)c2ccc(-c3ccc4nc(C(C(=O)NCCS(N)(=O)=O)S(C)(=O)=O)sc4c3)cc2)CC1` (stereo not drawn) [Example B43, 2-(6-{4-[(4-methyl-1-piperidinyl)carbonyl]phen-yl}-1,3-benzothiazol-2-yl)-2-(methylsulfonyl)-N-(2-sulfamoylethyl)a-cetamide], the IC50 against Endothelial lipase (EL) and at hepatic lipase (HL) was < 10 nM each time.
`CC1(O)CN(C(=O)c2ccc(-c3ccc4nc(C(C(=O)NCCS(N)(=O)=O)S(=O)(=O)CCC(F)(F)F)sc4c3)cc2)C1` (stereo not drawn) [Example B320, 2-{6-[4-(3-hydroxy-3-methylazetidine-1-carbonyl)phenyl]-1,3-benzothiazol-2-yl}-N-(2-sulfamoylethyl)-2-(3,3,3-trifluoropropanesulfonyl)a-cetamide]: the IC50 against Endothelial lipase (EL) worked out at 1.9 nM; at hepatic lipase (HL), 1260 nM.
Turning to `COCC(C)(C)NC(=O)c1ccc(-c2ccc3nc(C(C(=O)NCCS(N)(=O)=O)S(=O)(=O)Cc4ccc(OC(F)(F)F)cc4)sc3c2)cc1` (stereo not drawn) [Example B249, N-(1-methoxy-2-methyl-propan-2-yl)-4-(2-{[(2-sulfamoylethyl)carbamoyl][4-(trifluoromethoxy)phen-yl]methanesulfonyl-methyl}-1,3-benzothiazol-6-yl)benzamide], the IC50 against Endothelial lipase (EL) amounted to 8.3 nM; against hepatic lipase (HL), 29.4 nM.
In the case of `COCCNC(=O)c1ccc(-c2ccc3nc(C(C(=O)NCCS(N)(=O)=O)S(=O)(=O)Cc4ccccc4)sc3c2)cc1` (stereo not drawn) [Example B99, 4-(2-(1-(Benzylsulfonyl)-2-oxo-2-((2-sulfamoylethyl)amino)ethyl)-1,3-benzothiazol-6-yl)-N-(2-methoxyethyl)benzamide], the values for the IC50 on Endothelial lipase (EL) (setting [1]) and on hepatic lipase (HL) (setting [2]) were < 10 nM and 55 nM, respectively.
In the case of `Cc1nnc(CNC(=O)C(c2nc3cc(C)c(-c4ccc(F)nc4)cc3s2)S(C)(=O)=O)o1` (stereo not drawn) [Example B80, 2-[6-(6-fluoro-3-pyridinyl)-5-methyl-1,3-benzothiazol-2-yl]-N-[(5-methyl-1,3,4-oxadiazol-2-yl)methyl]-2-(methylsulfonyl)acetamide], the IC50 against Endothelial lipase (EL) and against hepatic lipase (HL) was < 10 nM throughout.
For the compound `Cc1nnc(CNC(=O)C(c2nc3ccc(-c4ccc(O)cc4)cc3s2)S(=O)(=O)Cc2ccccc2)o1` (stereo not drawn) [Example B254, 2-[6-(4-hydroxyphenyl)-1,3-benzothiazol-2-yl]-N-[(5-methyl-1,3,4-oxadiazol-2-yl)methyl]-2-phenylmethanesulfonyl-acetamide], the concentration for half-maximal inhibition (IC50) against Endothelial lipase (EL) amounted to 294 nM; against hepatic lipase (HL), 259 nM.
As for `NS(=O)(=O)CCNC(=O)C(c1nc2ccc(-c3ccc(C(=O)N4CCC(F)(F)C4)cc3)cc2s1)S(=O)(=O)CCC(F)(F)F` (stereo not drawn) [Example B170, 2-(6-(4-((3,3-difluoro-1-pyrrolidinyl)carbonyl)phen-yl)-1,3-benzothiazol-2-yl)-N-(2-sulfamoylethyl)-2-((3,3,3-trifluoropropyl)sul-fonyl)acetamide], the IC50 against Endothelial lipase (EL) is < 10 nM; at hepatic lipase (HL), 32 nM.
For `CS(=O)(=O)C(C(=O)NCCS(N)(=O)=O)c1nc2cc(-c3ccc(C(=O)N4CC(F)(F)C4)cc3)ccc2s1` (stereo not drawn) [Example B321, 2-{5-[4-(3,3-difluoroazetidine-1-carbonyl)phenyl]-1,3-benzothiazol-2-yl}-2-methanesulfonyl-N-(2-sulfamoylethyl)acetamide], in that order: 0.6 nM and 175 nM.
For `CC(C)(O)Cn1cc(-c2ccc3nc(C(C(=O)NCCS(N)(=O)=O)S(C)(=O)=O)sc3c2)ccc1=O` (stereo not drawn) [Example B186, 2-(6-(1-(2-hydroxy-2-methylpropyl)-6-oxo-1,6-dihydro-3-pyridinyl)-1,3-benzothiazol-2-yl)-2-(methylsulfonyl)-N-(2-sulfamoylethyl)acetamide] the same measures were 1.1 nM and 10000 nM.
For the compound `CS(=O)(=O)C(C(=O)NCCS(N)(=O)=O)c1nc2ccc(-c3nnc(-c4ccc(F)cc4)o3)cc2s1` (stereo not drawn) [Example B395, 2-(6-(5-(4-Fluorophenyl)-1,3,4-oxadiazol-2-yl)benzo[d]thiazol-2-yl)-2-(methylsulfonyl)-N-(2-sulfamoylethyl)acetamide], the IC50 on Endothelial lipase (EL) (setting [1]) worked out at 148 nM; on hepatic lipase (HL) (setting [2]), 275 nM.
For `CS(=O)(=O)C(C(=O)NCCS(N)(=O)=O)c1nc2cc(-c3ccc(C(=O)N4CCOCC4)cc3)ccc2s1` (stereo not drawn) [Example B86, 2-(methylsulfonyl)-2-(5-(4-(4-morpholinylcarbonyl)phen-yl)-1,3-benzothiazol-2-yl)-N-(2-sulfamoylethyl)a-cetamide], the IC50 against Endothelial lipase (EL) was < 10 nM; against hepatic lipase (HL), 494 nM.
For the compound `Cc1nnc(CNC(=O)C(c2nc3cc(C)c(-c4cnn(CCN5CCOCC5)c4)cc3s2)S(C)(=O)=O)o1` (stereo not drawn) [Example B83, 2-(5-methyl-6-(1-(2-(4-morpholinyl)ethyl)-1H-pyrazol-4-yl)-1,3-benzothiazol-2-yl)-N-((5-methyl-1,3,4-oxadiazol-2-yl)methyl)-2-(methylsulfonyl)acetamide], the values for the IC50 against Endothelial lipase (EL) and against hepatic lipase (HL) were 77 nM and 229 nM, respectively.
Turning to `CS(=O)(=O)C(C(=O)NCCS(N)(=O)=O)c1nc2ccc(-c3c[nH]nc3C(F)(F)F)cc2s1` (stereo not drawn) [Example B78, 2-(methylsulfonyl)-N-(2-sulfamoylethyl)-2-(6-(3-(trifluoromethyl)-1H-pyrazol-4-yl)-1,3-benzothiazol-2-yl)a-cetamide], the IC50 is < 10 nM at Endothelial lipase (EL) and 68 nM at hepatic lipase (HL).
